From patent US11951190B2, “Use of labeled inhibitors of prostate specific membrane antigen (PSMA), as agents for the treatment of prostate cancer” (DEUTSCHES KREBSFORSCHUNGSZENTRUM, priority 2013, dated 2024)
One block for each compound: values may come before it.

Columns and labels:
[1] = biological target: T1, PSMA expressing cell line LNCaP (Homo sapiens, UniProt Q04609); experiment: Competitive cell binding assay (68Ga-labeled [Glu-urea-Lys(Ahx)]2-HBED-CC radioligand); details: LNCaP cells, competition with 68Ga-labeled [Glu-urea-Lys(Ahx)]2-HBED-CC
T1 construct: using the PSMA expressing cell line LNCaP; host or cells: LNCaP
T1 sequence (Q04609 whole entry): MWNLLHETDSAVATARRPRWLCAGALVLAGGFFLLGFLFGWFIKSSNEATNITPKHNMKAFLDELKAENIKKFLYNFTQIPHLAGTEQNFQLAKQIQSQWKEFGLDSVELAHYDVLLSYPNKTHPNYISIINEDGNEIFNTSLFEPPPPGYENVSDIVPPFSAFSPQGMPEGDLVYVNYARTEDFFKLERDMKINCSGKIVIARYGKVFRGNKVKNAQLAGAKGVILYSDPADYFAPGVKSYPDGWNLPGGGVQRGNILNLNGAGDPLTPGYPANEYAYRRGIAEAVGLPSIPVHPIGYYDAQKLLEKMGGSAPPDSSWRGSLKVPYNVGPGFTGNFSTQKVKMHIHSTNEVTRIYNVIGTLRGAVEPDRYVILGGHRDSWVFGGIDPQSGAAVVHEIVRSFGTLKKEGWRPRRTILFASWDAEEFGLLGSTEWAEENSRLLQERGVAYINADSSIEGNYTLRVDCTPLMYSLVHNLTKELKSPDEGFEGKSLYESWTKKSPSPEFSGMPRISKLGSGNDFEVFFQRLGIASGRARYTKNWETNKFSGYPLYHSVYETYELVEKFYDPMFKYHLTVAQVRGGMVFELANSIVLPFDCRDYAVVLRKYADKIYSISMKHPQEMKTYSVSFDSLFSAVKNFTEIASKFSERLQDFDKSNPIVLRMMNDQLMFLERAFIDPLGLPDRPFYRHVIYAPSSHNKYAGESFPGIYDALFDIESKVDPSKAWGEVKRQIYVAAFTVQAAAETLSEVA
Experimental: (§1) In order to compare the series of novel compounds the competitive binding affinity and the specific internalization was analyzed using the PSMA expressing cell line LNCaP. To determine specific cellular uptake, cells were blocked with 2-(phosphonomethyl)-pentanedioic acid (PMPA). The inhibition potency was also investigated by the enzyme-based NAALADase assay.
(§2) For binding studies and in vivo experiments LNCaP cells (metastatic lesion of human prostatic adenocarcinoma, ATCC CRL-1740) were cultured in RPMI medium supplemented with 10% fetal calf serum and Glutamax (PAA, Austria). During cell culture, cells were grown at 37° C. in an incubator with humidified air, equilibrated with 5% CO2. The cells were harvested using trypsin-ethylenediaminetetraacetic acid (trypsin-EDTA; 0.25% trypsin, 0.02% EDTA, all from PAA, Austria) and washed with PBS.
The competitive cell binding assay and internalization experiments were performed as described previously (Eder et al. 2012).

[2] = system: LNCaP cells; experiment: Specific cell uptake and internalization; format: cell-based, human; details: 45 min
Experimental: as §1, §2
To determine the specific cell uptake and internalization, 10^5 cells were seeded in poly-L-lysine coated 24-well cell culture plates 24 h before incubation. After washing, the cells were incubated with 25 nM of the radiolabeled compounds for 45 min at 37° C. and at 4° C., respectively. Specific cellular uptake was determined by competitive blocking with 2-(phosphonomethyl)pentanedioic acid (500 μM final concentration, PMPA, Axxora, Loerrach, Germany). Cellular uptake was terminated by washing 4 times with 1 mL of ice-cold PBS. Cells were subsequently incubated twice with 0.5 mL glycine-HCl in PBS (50 mM, pH=2.8) for 5 min to remove the surface-bound fraction. The cells were washed with 1 mL of ice-cold PBS and lysed using 0.3 N NaOH (0.5 mL). The surface-bound and the internalized fractions were measured in a gamma counter. The cell uptake was calculated as percent of the initially added radioactivity bound to 10^6 cells [% ID/10^6 cells].

[3] = system: LNCaP tumor xenografts; experiment: Biodistribution / organ distribution in LNCaP tumor-bearing mice; format: in vivo, BALB/c nu/nu mice; details: for PSMA-specific uptake (organ distribution): 68Ga labeled, 1 h post injection of 0.06 nmol, blocking with 2 mg/kg 2-PMPA
Experimental: FIG. 2: Organ Distribution at 1 h post injection. […] Data are expressed as mean % ID/g tissue±SD (n=3).
The favourable pharmacokinetics led to extremely high tumor-to-background ratios (Tumor/Blood: 1058; Tumor/Muscle: 529) after 24 hours
7- to 8-week-old male BALB/c nu/nu mice (Charles River Laboratories) were subcutaneously inoculated into the right trunk with 5×10^6 cells of LNCaP (in 50% Matrigel; Becton Dickinson, Heidelberg, Germany). The tumors were allowed to grow until approximately 1 cm3 in size. The radiolabeled compounds were injected into the tail vein (approx. 1 MBq per mouse; 0.06 nmol). […] Organs of interest were dissected, blotted dry, and weighed. The radioactivity was measured using a gamma counter and calculated as % ID/g.

[4] = system: LNCaP tumor xenografts; experiment: Dynamic microPET imaging; format: in vivo, athymic male nude mice; details: 68Ga-labeled
Experimental: Whole-body coronal microPET images of an athymic male nude mice bearing LNCaP tumor xenografts. […] Approximately 15 MBq/mouse were injected. […] The values are expressed as mean SUV (standardized uptake values).
For the microPET studies, 10-25 MBq of the radiolabeled compounds in a volume of 0.15 ml (˜0.5 nmol) were injected via a lateral tail vein into mice bearing LNCaP tumor xenografts. The anesthetized animals (2% sevoflurane, Abbott, Wiesbaden, Germany) were placed in prone position into the Inveon small animal PET scanner (Siemens, Knoxville, Tn., USA) to perform dynamic microPET scans and 20 min-static scans; c.f. FIG. 1, 3, 5-14

[5] = for Ga-68, 25 nM radiolabeled compound
[6] = 177Lu-labeled, 24 h post injection of 0.06 nmol, n=5

SMILES: O=C(O)CCC(NC(=O)NC(CCCCNC(=O)c1ccc(CNC(=O)CN2CCN(CC(=O)O)CCN(CC(=O)O)CCN(CC(=O)O)CC2)cc1)C(=O)O)C(=O)O (stereo not drawn) [MB2]
IC50 [1]: 2.75 ± 0.82 nM
Internalization [2, 5]: 8.78 ± 3.96 for Ga-68 % IA/10^6 cells

SMILES: O=C(O)CC[C@H](NC(=O)N[C@@H](CCCCNC(=O)[C@@H](Cc1ccc2ccccc2c1)NC(=O)[C@H]1CC[C@H](CNC(=O)CN2CCN(CC(=O)O)CCN(CC(=O)O)CCN(CC(=O)O)CC2)CC1)C(=O)O)C(=O)O [MB17.D]
IC50 [1]: 12.4 ± 5.1 nM

SMILES: O=C(O)CC[C@H](NC(=O)N[C@@H](CCCCNC(=O)c1ccc(CNC(=O)c2ccc(CNC(=O)c3ccc(CNC(=O)CN4CCN(CC(=O)O)CCN(CC(=O)O)CCN(CC(=O)O)CC4)cc3)cc2)cc1)C(=O)O)C(=O)O [MB4]
IC50 [1]: 0.74 ± 0.5 nM
Internalization [2, 5]: 14.18 ± 0.98 for Ga-68 % IA/10^6 cells

SMILES: O=C(O)CCC(NC(=O)NC(CCCCNC(=O)c1ccc(CNC(=O)c2ccc(CNC(=O)CN3CCN(CC(=O)O)CCN(CC(=O)O)CCN(CC(=O)O)CC3)cc2)cc1)C(=O)O)C(=O)O (stereo not drawn) [MB3]
IC50 [1]: 10.5 ± 6.06 nM

SMILES: O=C(O)CC[C@H](NC(=O)N[C@@H](CCCCNC(=O)[C@H](Cc1ccc2ccccc2c1)NC(=O)[C@H]1CC[C@H](CNC(=O)CN2CCN(CC(=O)O)CCN(CC(=O)O)CCN(CC(=O)O)CC2)CC1)C(=O)O)C(=O)O [MB17]
Internalization [2, 5]: 17.02 ± 4.36 for Ga-68 % IA/10^6 cells
Internalization ([2]; for Lu-177, 25 nM radiolabeled compound): 17.51 ± 3.99 for Lu-177 % IA/10^6 cells
PSMA-specific uptake (organ distribution) ([3]; 2 mg/kg): PSMA-specific uptake in the tumor and the kidneys
PSMA-specific uptake (organ distribution) ([3]; listed as MB 17, 2 mg/kg): high PSMA-specific tumor uptake
kidney uptake [3, 6]: 2.13±1.36 % ID/g
liver uptake [3, 6]: 0.08±0.03 % ID/g
lung uptake [3, 6]: 0.11±0.13 % ID/g
spleen uptake [3, 6]: 0.13±0.05 % ID/g
tumor uptake [3, 6]: 10.58±4.50 % ID/g
background clearance and kidney enrichment in PET diagrams ([4]; after 2 hours): rapid background clearance as well as a substantial reduction of the enrichment in the kidney
time of maximum kidney uptake (highest point in the time-activity-curve) ([4]; dynamic PET, after injection of the radiotracer): 15 min

SMILES: O=C(O)CCC(NC(=O)NC(CCCCNC(=O)c1ccc(CNC(=O)c2ccc(CNC(=O)c3ccc(CNC(=O)c4ccc(CNC(=O)CN5CCN(CC(=O)O)CCN(CC(=O)O)CCN(CC(=O)O)CC5)cc4)cc3)cc2)cc1)C(=O)O)C(=O)O (stereo not drawn) [MB10]
IC50 [1]: 8.67 ± 1.58 nM

Second part, the compound after the results:

IC50 [1]: 59.3 nM
SMILES: O=C(O)CC[C@H](NC(=O)N[C@@H](CCCCNC(=O)C1CCC(CNC(=O)c2ccc(CNC(=O)CN3CCN(CC(=O)O)CCN(CC(=O)O)CCN(CC(=O)O)CC3)cc2)CC1)C(=O)O)C(=O)O (stereo partly drawn) [MB33]

IC50 [1]: 6.64 nM
SMILES: O=C(O)CCC(NC(=O)NC(CCCCNC(=O)C(Cc1ccc2ccccc2c1)NC(=O)CCCCCNC(=O)CN1CCN(CC(=O)O)CCN(CC(=O)O)CCN(CC(=O)O)CC1)C(=O)O)C(=O)O (stereo not drawn) [MB25]

IC50 [1]: 26.2 nM
SMILES: O=C(O)CC[C@H](NC(=O)N[C@@H](CCCCNC(=O)C1CCC(CNC(=O)C(Cc2ccc3ccccc3c2)NC(=O)CN2CCN(CC(=O)O)CCN(CC(=O)O)CCN(CC(=O)O)CC2)CC1)C(=O)O)C(=O)O (stereo partly drawn) [MB35]

IC50 [1]: 52.8 nM
SMILES: O=C(O)CCC(NC(=O)NC(CCCCNC(=O)C1CCC(CNC(=O)CN2CCN(CC(=O)O)CCN(CC(=O)O)CCN(CC(=O)O)CC2)CC1)C(=O)O)C(=O)O (stereo not drawn) [MB22]

IC50 [1]: 91.8 nM
SMILES: O=C(O)CC[C@H](NC(=O)N[C@@H](CCCCNC(=O)C1CCC(CNC(=O)C2CCC(CNC(=O)CN3CCN(CC(=O)O)CCN(CC(=O)O)CCN(CC(=O)O)CC3)CC2)CC1)C(=O)O)C(=O)O (stereo partly drawn) [MB31]

IC50 [1]: 3.33 nM
SMILES: O=C(O)CCC(NC(=O)NC(CCCCNC(=O)C(Cc1ccc2ccccc2c1)NC(=O)c1ccc(CNC(=O)CN2CCN(CC(=O)O)CCN(CC(=O)O)CCN(CC(=O)O)CC2)cc1)C(=O)O)C(=O)O (stereo not drawn) [MB24]
